Read-outs that look alike come from different tables or passages of the source. Where a SMILES comes first, the peptide text is derived from it. Bridges are numbered along the chain shown (N, C = ends). [ ]: non-standard residue; d: D form. The star is where a group is joined. d(aIle) = CC[C@H](C)[C@@H](N)C(=O)O; d(aThr) = C[C@@H](O)[C@@H](N)C(=O)O; hCha = N[C@@H](CCC1CCCCC1)C(=O)O; Hexanoyl(5-Me) = CC(C)CCCC(=O)*; Orn = NCCC[C@H](N)C(=O)O; Dhb = C/C=C(\N)C(=O)O
What was measured:
Type in all cases: cell-based, human
[1] = tested on: IGROV-ET; experiment: SRB colorimetric assay of cell growth and viability, IGROV-ET; conditions: 48 hours exposure; for CC50: read-out: LC50 IGROV-ET
[2] = tested on: A-549; experiment: SRB colorimetric assay of cell growth and viability, A-549; conditions: 48 hours exposure; for GI50: read-out: GI50 A-549; for CC50: read-out: LC50 A-549
[3] = tested on: IGROV-1; experiment: SRB colorimetric assay of cell growth and viability, IGROV-1; conditions: 48 hours exposure
[4] = tested on: SK-BR-3; experiment: SRB colorimetric assay of cell growth and viability, SK-BR-3; conditions: 48 hours exposure
[5] = tested on: DU-145; experiment: SRB colorimetric assay of cell growth and viability, DU-145; conditions: 48 hours exposure
[6] = tested on: HeLa; experiment: SRB colorimetric assay of cell growth and viability, HeLa; conditions: 48 hours exposure; for CC50: read-out: LC50 HELA
[7] = tested on: LoVo-Dox; experiment: SRB colorimetric assay of cell growth and viability, LoVo-Dox; conditions: 48 hours exposure; for CC50: read-out: LC50 LOVO-DOX
Procedure, shortened: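 First, 5×10^3 cells per well attach for 18 hours in RPMI 1640 with 10% FBS at 37° C and 5% CO2. Next, samples spanning 10 to 10^−8 μg/mL are added for 48 hours. Finally, cells are fixed with TCA, stained with SRB for 10 minutes and read at 490 nm.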

[8] = tested on: LNCaP; experiment: SRB colorimetric assay of cell growth and viability, LNCaP; conditions: 48 hours exposure; for CC50: read-out: LC50 LN-caP
[9] = tested on: HT-29; experiment: SRB colorimetric assay of cell growth and viability, HT-29; conditions: 48 hours exposure; for GI50: read-out: GI50 HT-29; for CC50: read-out: LC50 HT-29
[10] = tested on: LoVo; experiment: SRB colorimetric assay of cell growth and viability, LoVo; conditions: 48 hours exposure; for CC50: read-out: LC50 LOVO
[11] = tested on: SK-MEL-28; experiment: SRB colorimetric assay of cell growth and viability, SK-MEL-28; conditions: 48 hours exposure; for CC50: read-out: LC50 MEL-28
[12] = tested on: HeLa-APL; experiment: SRB colorimetric assay of cell growth and viability, HeLa-APL; conditions: 48 hours exposure; for CC50: read-out: LC50 HELA-APL
[13] = tested on: K-562; experiment: SRB colorimetric assay of cell growth and viability, K-562; conditions: 48 hours exposure; for CC50: read-out: LC50 K-562
[14] = tested on: PANC-1; experiment: SRB colorimetric assay of cell growth and viability, PANC-1; conditions: 48 hours exposure; for CC50: read-out: LC50 PANC-1

C/C=C1\NC(=O)[C@H](Cc2ccccc2Cl)NC(=O)[C@@H](C(C)C)NC(=O)[C@@H]([C@@H](C)CC)NC(=O)[C@H](NC(=O)[C@H](NC(=O)[C@H](CCCN)NC(=O)[C@H]2CCCN2C(=O)[C@H](NC(=O)[C@@H](NC(=O)[C@@H](NC(=O)[C@H](NC(=O)CCCC(C)C)C(C)C)[C@@H](C)O)C(C)C)C(C)C)[C@@H](C)CC)[C@@H](C)OC(=O)[C@H](C(C)C)NC1=O [Compound 81, [Phe(2-Cl)^3]-KF]
GI50 ([1]; IGROV-ET): 100 nM
TGI IGROV-ET ([1]; IGROV-ET): 2.40E−07 Molar
CC50 ([1]; IGROV-ET): 639 nM
TGI A-549 ([2]; A-549): 9.04E−07 Molar
GI50 ([2]; A-549): 457 nM
CC50 ([2]; A-549): 1570 nM
GI50 ([3]; IGROV): 86.7 nM
LC50 (concentration causing 50% net cell killing) ([3]; IGROV): 596 nM
TGI IGROV ([3]; IGROV): 2.09E−07 Molar
GI50 ([4]; SK-BR-3): 61.2 nM
LC50 ([4]; SK-BR-3): 664 nM
TGI SK-BR-3 ([4]; SK-BR-3): 1.18E−07 Molar
GI50 ([5]; DU-145): 242 nM
LC50 (concentration causing 50% net cell kill) ([5]; DU-145): 1210 nM
TGI DU-145 ([5]; DU-145): 6.83E−07 Molar
GI50 ([6]; HELA): 199 nM
TGI HELA ([6]; HELA): 6.33E−07 Molar
CC50 ([6]; HELA): 1440 nM
GI50 ([7]; LOVO-DOX): 70.1 nM
TGI LOVO-DOX ([7]; LOVO-DOX): 1.20E−07 Molar
CC50 ([7]; LOVO-DOX): 369 nM
GI50 ([8]; LN-caP): 75.6 nM
TGI LN-caP ([8]; LN-caP): 3.87E−07 Molar
CC50 ([8]; LN-caP): 1270 nM
TGI HT-29 ([9]; HT-29): 2.23E−07 Molar
GI50 ([9]; HT-29): 102 nM
CC50 ([9]; HT-29): 543 nM
GI50 ([10]; LOVO): 89.2 nM
TGI LOVO ([10]; LOVO): 1.72E−07 Molar
CC50 ([10]; LOVO): 445 nM
GI50 ([11]; MEL-28): 362 nM
TGI MEL-28 ([11]; MEL-28): 8.73E−07 Molar
CC50 ([11]; MEL-28): 1680 nM
GI50 ([12]; HELA-APL): 342 nM
TGI HELA-APL ([12]; HELA-APL): 7.87E−07 Molar
CC50 ([12]; HELA-APL): 1840 nM
GI50 ([13]; K-562): 1840 nM
TGI K-562 ([13]; K-562): 1.84E−06 Molar
CC50 ([13]; K-562): 1840 nM
GI50 ([14]; PANC-1): 1400 nM
TGI PANC-1 ([14]; PANC-1): 1.84E−06 Molar
CC50 ([14]; PANC-1): 1840 nM

C/C=C1\NC(=O)[C@H](Cc2ccccc2)NC(=O)[C@@H](C(C)C)NC(=O)[C@@H]([C@@H](C)CC)NC(=O)[C@H](NC(=O)[C@H](NC(=O)[C@H](CCCN)NC(=O)[C@H]2CCCN2C(=O)[C@H](NC(=O)[C@H](CCC2CCCCC2)NC(=O)[C@@H](NC(=O)[C@H](NC(=O)CCCC(C)C)C(C)C)[C@@H](C)O)C(C)C)[C@@H](C)CC)[C@@H](C)OC(=O)[C@H](C(C)C)NC1=O [Compound 9, [hCh^11]-KF] ({Hexanoyl(5-Me)}-[dV]T[hCha][dV][dP][Orn][d(aIle)][d(aThr)][d(aIle)][dV]F[Dhb]V; ester 8-C)
GI50 [1]: 278 nM
TGI IGROV-ET [1]: 8.09E−07 Molar
CC50 [1]: 2940 nM
TGI A-549 [2]: 4.48E−07 Molar
GI50 [2]: 184 nM
CC50 [2]: 1640 nM
GI50 [3]: 237 nM
LC50 (concentration causing 50% net cell killing) [3]: 3310 nM
TGI IGROV [3]: 7.76E−07 Molar
GI50 [4]: 149 nM
LC50 [4]: 1360 nM
TGI SK-BR-3 [4]: 3.66E−07 Molar
GI50 [5]: 455 nM
LC50 (concentration causing 50% net cell kill) [5]: 3280 nM
TGI DU-145 [5]: 1.24E−06 Molar
GI50 [6]: 356 nM
TGI HELA [6]: 1.12E−06 Molar
CC50 [6]: 2920 nM
GI50 [7]: 50.7 nM
TGI LOVO-DOX [7]: 1.30E−07 Molar
CC50 [7]: 305 nM
TGI LN-caP [8]: 2.33E−06 Molar
GI50 ([8]; read-out: GI50 LN-caP): 925 nM
CC50 [8]: 5850 nM
TGI HT-29 [9]: 1.92E−07 Molar
GI50 [9]: 86 nM
CC50 [9]: 429 nM
GI50 [10]: 95.7 nM
TGI LOVO [10]: 1.93E−07 Molar
CC50 [10]: 390 nM
GI50 [11]: 321 nM
TGI MEL-28 [11]: 9.44E−07 Molar
CC50 [11]: 2620 nM
GI50 [12]: 391 nM
TGI HELA-APL [12]: 1.20E−06 Molar
CC50 [12]: 2750 nM
GI50 [13]: 1720 nM
TGI K-562 [13]: 3.39E−06 Molar
CC50 [13]: 6470 nM
GI50 [14]: 2250 nM
TGI PANC-1 [14]: 5.27E−06 Molar
CC50 [14]: 6470 nM

From patent US20070117743A1, “New antitumoral compounds” (priority 2003, published 2007)
